Common to all, as to assay type: cell-based
One experiment relates to Src. Put plainly: Src inhibitor pretreatment, EGF-induced HRas activity measured with RasAR sensors in COS-7 cells. As to conditions: for effect of pretreatment on EGF-induced response, cytosolic RasAR: RasAR + HRasWT, 1 μM inhibitor. The text has this: To clarify the regulatory role of Src on HRas at the Golgi, we monitored HRas activity at the Golgi with GA-RasAR in the presence of Src inhibitor PP2.
Phosphorylation of residue Y32 has been implicated in the negative regulation of HRas by Src.31 To verify this mechanism of Src inhibition we co-expressed RasAR with HRasY32F and stimulated with EGF. […] KRas was recently shown to be negatively regulated by Src via dual phosphorylation of Y32 and Y64,28 which negatively impacts multiple steps of the GTPase cycle and impairs binding to effectors. However, the role of Y64 in HRas has not been investigated. To test the hypothesis that phosphorylation of both Y32 and Y64 is involved in Src regulation of HRas, we expressed RasAR and an mCherry-labeled HRas mutant containing Y32F/Y64F mutations and monitored EGF-induced responses in the presence and absence of PP2.
Cells were washed three times with Hanks's balanced salt solution (HBSS, Gibco) prior to imaging. Cells were imaged in HBSS in the dark at 37° C. […] Cells were imaged on a Zeiss Axio Observer Z1 microscope equipped with a 20×/0.8 NA objective and a Hamamatsu Flash 4.0 sCMOS camera, controlled using MicroManager 2.0 software. For time series, images from multiple fields of view were acquired at each time point at 30 sec intervals. RFP was imaged using a 568DF55 excitation filter, a 600DRLP dichroic mirror, and a 653DF95 emission filter. CFP was imaged using a 420DF20 excitation filter, a 455DRLP dichroic mirror, and a 470DF40 emission filter. CYFRET was imaged using a 420DF20 excitation filter, a 455DRLP dichroic mirror, and a 535DF25 emission filter. YFP was imaged using a 495DF10 excitation filter, a 515DRLP dichroic mirror, and a 535DF25 emission filter. Exposure times for each channel were 250-500 ms. All filter sets were controlled by a Lambda 10-2 filter-changer (Sutter Instruments). All fluorescence images were background-correcting by rolling circle background subtraction in ImageJ using a rolling-ball circle radius of 350 pixels. Cyan/yellow or yellow/cyan emission ratios were then calculated by dividing the CFP channel values by the CYFRET channel values, or the CYFRET channel values by CFP channel values, respectively. For the time-series analysis, all values were normalized to the time point prior to drug addition by dividing each value by basal ratio value prior to drug addition. Co-expression experiments were processed using Cell Profiler on background subtracted images and segmented using CYFRET channel images. Individual t½ measurements were acquired using custom script within Matlab.

For the next experiment, the system named is mCherry-KRasG12C. As to the kind of experiment: Ras expression assessed by RFP intensity in COS-7 cells.
For the next experiment, the target named is T1, KRasG12C (Homo sapiens, UniProt P01116, G12C).
T1 construct: expressed in transfected cells; host or cells: COS-7

The next experiment deals with T2, KRasWT (Homo sapiens, UniProt P01116).
T2 construct: host or cells: COS-7
As to the kind of experiment: Live-cell Ras inhibitor assay, COS-7 cells co-expressing RasAR and KRasWT control. As to conditions: KRasWT controls, 10 μM, 24 hr, vs DMSO.

The next experiment relates to ERK. As to the kind of experiment: ERK activity reporter (EKAR4) Y/C emission ratio in COS-7 cells. The following applies: 10 μM, 3 hr.
The subject of a further experiment is EGFR. Put plainly: Reversal of EGF-induced RasAR response by EGFR inhibitor. The following applies: RasAR + mCherry-KRasWT, 100 ng/ml EGF followed by 200 nM AG1478. The text has this:
To determine whether RasAR can detect dynamic Ras activity, we co-expressed the sensor with mCherry-KRasWT in COS-7 cells and stimulated the cells with epidermal growth factor (EGF). […] Consistent with previous studies,26 we observed higher C/Y emission ratios in membrane ruffles following EGF stimulation, indicating enhanced KRas activity in these regions. In addition, consistent with the Golgi localization of Ras,26 we observed an increased activity in the Golgi compartment (FIGS. 2A and 8). […] The EGF-stimulated increases in the emission ratio occurred in both the membrane ruffles as well as the Golgi compartment (FIGS. 2B-2C and 8), with slower kinetics observed at the Golgi (FIG. 7A).
Cells were washed three times with Hanks's balanced salt solution (HBSS, Gibco) prior to imaging. Cells were imaged in HBSS in the dark at 37° C. […] Cells were imaged on a Zeiss Axio Observer Z1 microscope equipped with a 20×/0.8 NA objective and a Hamamatsu Flash 4.0 sCMOS camera, controlled using MicroManager 2.0 software. […] All fluorescence images were background-correcting by rolling circle background subtraction in ImageJ using a rolling-ball circle radius of 350 pixels. Cyan/yellow or yellow/cyan emission ratios were then calculated by dividing the CFP channel values by the CYFRET channel values, or the CYFRET channel values by CFP channel values, respectively. […]

Take `COc1cc2ncnc(Nc3ccc(Oc4ccccc4)cc3)c2cc1OC` [SrcI1]: the “effect of pretreatment on EGF-induced response, cytosolic RasAR” value in the experiment with Src (vs DMSO) was “enhanced EGF-induced Ras activity”.

In the case of `CC(C)(C)n1nc(-c2ccc(Cl)cc2)c2c(N)ncnc21` [PP2], the “effect of pretreatment on EGF-induced response at the Golgi” value with Src (GA-RasAR + mCherry-HRas, vs DMSO, n=300 cells each) is recorded as “enhanced”. Besides, in the experiment on Src (vs DMSO), the “effect of pretreatment on EGF-induced response, cytosolic RasAR” value is “larger EGF-induced response”. In the experiment with Src (RasAR + mCherry-HRasY32F, PP2 1 μM, vs control cells), the “effect of pretreatment on EGF-induced response, HRasY32F” value was “enhanced response to EGF”. The “effect of pretreatment on EGF-induced response, HRas Y32F/Y64F” value in the experiment on Src (RasAR + mCherry-HRasY32F/Y64F, vs control cells, n=180 cells each) is “no significant difference”. The “effect of pretreatment on EGF-induced Ras activity at the plasma membrane” value with Src (pm-RasAR + mCherry-HRasWT, vs DMSO) is on record as “did not affect EGF-induced Ras activity”.

`C[C@@H]1C[C@@H]([C@H](O)CC2CC(=O)NC(=O)C2)C(=O)[C@@H](C)C1` [cycloheximide]: the “effect on KRasG12C expression levels” value with mCherry-KRasG12C (24-hr timeframe) is given as “reduced KRasG12C expression levels”. Further, the “Cohen's d, RFP intensities with and without cycloheximide” value in the experiment on mCherry-KRasG12C (ARS1620 10 μM, cycloheximide 100 μg/ml) is reported as 0.36. Also, the “Cohen's f, effect of treatment on mCherry-KRasG12C expression by RFP intensity” value with mCherry-KRasG12C (cycloheximide treatment 24 hr) was 1.26. For the same molecule, at KRasG12C (ARS1620 10 μM with cycloheximide 100 μg/ml), the “effect of inhibiting protein re-synthesis on kinetics of Ras inactivation by ARS1620” value was “did not speed up the kinetics of Ras inactivation”.

Regarding `C=CC(=O)N1CCN(c2ncnc3c(F)c(-c4c(O)cccc4F)c(Cl)cc23)CC1` [ARS1620], the “effect on RasAR C/Y emission ratio” value at KRasWT is “no effect of inhibitor treatment”; at KRasG12C (10 μM, 24 hr, vs DMSO), “higher C/Y emission ratio in KRasG12C-expressing cells treated with DMSO compared with ARS1620 treatment”. In addition, the “Cohen's f, RFP intensities across titration treatment groups” value in the experiment on mCherry-KRasG12C (ARS1620 titration experiment, 24 hr) is 0.06. Also, the entries for the “Cohen's d, effect of treatment on EKAR4 Y/C emission ratio” value with ERK (mCherry-KRasG12C expressing COS-7 cells) and in the experiment on ERK (mCherry-KRasWT expressing COS-7 cells) were 0.84 and 0.02, respectively. Besides, the “time over which the C/Y emission ratio continuously declines after treatment” value on KRasG12C (10 μM inhibitor) was 5 h. The “concentration dependence of C/Y emission ratio” value at KRasG12C (10 μM, 3 μM, 1 μM, 0.3 μM, 0.1 μM, 24 hr) is on record as “dose-dependent inhibition of KRasG12C”.

For `COc1cc2ncnc(Nc3cccc(Cl)c3)c2cc1OC` [AG1478], in the experiment on EGFR, the “effect on C/Y emission ratio after EGF stimulation” value is recorded as “decrease in the C/Y emission ratio”.

The values above are taken from US20260072030A1, “RAS BIOSENSORS” (The Regents of the University of California, priority 2022, published 2026).
